# Test results: paper PMC5384750 (PLoS ONE, 2017)
# Experiments:
# [1] = biological target: T1, insulin-degrading enzyme (IDE) (Homo sapiens, UniProt P14735); assay: Inhibition of / competition with sp6 or sp6BY degradation in S10 extract; assay type: biochemical; settings: 30 min, 37°C; for stabilization of sp6BY by known IDE-inhibitors: 10 ng sp6BY, 5 μg S10 extract, increasing concentrations, fluorescence, at least three independent experiments (S2 Fig); for stabilization of sp6 by protease inhibitor (initial screen): 100 ng sp6, 5 μg S10 extract, Western blot, 1.3 mM EDTA, 130 μM Bestatin, 600 nM Phosphoramidon
# T1 construct: endogenous in cells; host or cells: HeLa cells (cytosolic S10 extract)
# Procedure: (§1) For generation of S10, confluent dishes with HeLa cells were extensively washed and subsequently lysed with a modified S10 buffer (250 mM sucrose, 80 mM KCl, 10 mM Tris pH 7.6, 0.1% (v/v) Triton X-100 [91]). Debris and nuclei were removed by centrifugation at 10.000 × g for 10 min. Protein content was determined by BCA-Assay (Pierce) and aliquots stored at -80°C.
# (§2) Reactions were stopped by addition of sample buffer and incubation at 95°C for 5 min. Remaining p6 was detected by Western blotting using an anti-p6 rabbit antiserum. Alternatively, 10 ng of BODIPY FL-labeled sp6 (sp6BY) were used as substrate and detected directly in the polyacrylamide gel by fluorescence scanning. In some experiments the amount of p6 was densitometrically quantified with the software AIDA (Raytest). For the in vitro degradation of amyloid-β 10 ng of Aβ-FITC (abcam) were used analogously to sp6BY. For the in vitro degradation of viral p6, VLPs were pelleted and lysed in IDE enzyme buffer (150 mM NaCl, 50 mM Tris pH 7.4, 0.5% (v/v) Triton X-100). The p6 content was estimated by Western blotting using a dilution series of sp6 with known concentrations. Equivalents of 15 ng were used for digestion experiments and subsequently detected by Western blotting. Experiments carried out with recombinant IDE (Calbiochem) were performed in IDE enzyme buffer.
# Bestatin, Chymostatin, E-64, Leupeptin, Pepstatin, Phosphoramidon, Pefabloc SC, EDTA, Aprotinin, Antipain were purchased from Roche as part of a protease inhibitors set and used at the following concentrations: 74 μM Antipain; 130 μM Bestatin; 100 μM Chymostatin; 28 μM E-64; 1 μM Leupeptin; 1 μM Pepstatin; 600 nM Phosphoramidon; 4 mM Pefabloc SC; 1.3 mM EDTA; […]. […] (Phoenix Pharmaceuticals and Tocris), TPEN (Calbiochem), and NEM (Roche) were purchased from companies indicated.
# recombinant IDE (rIDE) = biological target: T2, recombinant IDE (rIDE) (Rattus norvegicus, UniProt P35559); assay: Inhibition of rIDE-mediated degradation of sp6BY; assay type: biochemical; settings: 10 ng rIDE, 10 ng sp6BY, 30 min, 37°C; TPEN 1 mM, NEM 1 mM, insulin 100 μg/ml
# T2 construct: purchased Calbiochem
# Procedure: Fig 6 IDE is sufficient and required for the in vitro degradation of sp6 and vp6. (A) 10 ng sp6BY were incubated with 5 μg S10 extract from HeLa cells, either untransfected or transfected with control or IDE-specific siRNA, for 0, 10, 30 or 90 min at 37°C. (B) sp6BY was detected by fluorescence emission and quantified. (C) VLP lysates from HEK293T cells were incubated with S10 from siRNA treated cells described in A. Viral proteins were detected as described in Fig 1. (D) Western blot analyses of the S10 extract used in A and C. The membrane was stained with antibodies specific for IDE, HSP70, and β-actin. […] (F) VLP lysates were incubated with 10 ng rIDE for 30 min.
# as §2, with “Typically 5 μg S10 were incubated with inhibitor or buffer and 20–100 ng sp6 at 37°C for 30 min. Reactions” for “Reactions”, “buffer. Recombinant FITC-labeled insulin was purchased from Sigma.” for “buffer.”
# [2] = cytosolic S10 HeLa cell extract (S10); settings: 37°C, up to 60 min
# [3] = In vitro degradation in cytosolic S10 HeLa cell extract; assay type: in vitro ADME; settings: 10 ng sp6BY E0A or vp6 S40F, S14N, K27/33R; 5 μg S10 extract, 37°C; fluorescence or Western blot; three independent experiments (S1B Fig)
# Procedure: as §1
# as §2, with “Typically 5 μg S10 were incubated with inhibitor or buffer and 20–100 ng sp6 at 37°C for 30 min. Reactions” for “Reactions”, “buffer. Recombinant FITC-labeled insulin was purchased from Sigma.” for “buffer.”
# purified mammalian IDE = settings: cited from earlier work
# T1 sequence (P14735 whole entry): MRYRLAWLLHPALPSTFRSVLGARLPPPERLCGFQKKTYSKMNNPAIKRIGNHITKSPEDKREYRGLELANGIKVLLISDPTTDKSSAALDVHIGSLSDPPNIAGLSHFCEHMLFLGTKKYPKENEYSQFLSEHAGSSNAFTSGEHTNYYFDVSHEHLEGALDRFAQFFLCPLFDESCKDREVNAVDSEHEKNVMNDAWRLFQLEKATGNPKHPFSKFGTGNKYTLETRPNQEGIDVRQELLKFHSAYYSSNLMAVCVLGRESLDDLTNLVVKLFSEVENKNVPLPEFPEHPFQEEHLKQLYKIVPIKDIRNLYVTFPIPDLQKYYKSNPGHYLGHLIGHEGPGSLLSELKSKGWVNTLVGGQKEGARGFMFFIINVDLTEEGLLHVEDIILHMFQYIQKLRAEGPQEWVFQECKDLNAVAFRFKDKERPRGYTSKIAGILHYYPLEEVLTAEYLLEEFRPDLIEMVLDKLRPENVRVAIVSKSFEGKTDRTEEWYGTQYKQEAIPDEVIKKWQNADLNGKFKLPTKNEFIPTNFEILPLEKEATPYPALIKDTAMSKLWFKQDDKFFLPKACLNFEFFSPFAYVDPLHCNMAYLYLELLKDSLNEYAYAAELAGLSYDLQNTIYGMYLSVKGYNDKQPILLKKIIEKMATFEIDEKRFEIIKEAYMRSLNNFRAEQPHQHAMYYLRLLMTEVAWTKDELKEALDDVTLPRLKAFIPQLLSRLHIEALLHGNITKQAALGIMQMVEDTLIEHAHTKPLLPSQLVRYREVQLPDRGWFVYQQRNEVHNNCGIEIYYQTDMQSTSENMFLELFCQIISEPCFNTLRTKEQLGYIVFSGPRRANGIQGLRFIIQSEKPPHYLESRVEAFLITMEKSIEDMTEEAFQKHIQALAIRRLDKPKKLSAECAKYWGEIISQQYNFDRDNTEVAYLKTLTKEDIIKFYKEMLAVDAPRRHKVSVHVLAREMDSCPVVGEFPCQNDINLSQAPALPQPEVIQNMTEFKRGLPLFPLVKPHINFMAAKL
# T2 sequence (P35559 whole entry): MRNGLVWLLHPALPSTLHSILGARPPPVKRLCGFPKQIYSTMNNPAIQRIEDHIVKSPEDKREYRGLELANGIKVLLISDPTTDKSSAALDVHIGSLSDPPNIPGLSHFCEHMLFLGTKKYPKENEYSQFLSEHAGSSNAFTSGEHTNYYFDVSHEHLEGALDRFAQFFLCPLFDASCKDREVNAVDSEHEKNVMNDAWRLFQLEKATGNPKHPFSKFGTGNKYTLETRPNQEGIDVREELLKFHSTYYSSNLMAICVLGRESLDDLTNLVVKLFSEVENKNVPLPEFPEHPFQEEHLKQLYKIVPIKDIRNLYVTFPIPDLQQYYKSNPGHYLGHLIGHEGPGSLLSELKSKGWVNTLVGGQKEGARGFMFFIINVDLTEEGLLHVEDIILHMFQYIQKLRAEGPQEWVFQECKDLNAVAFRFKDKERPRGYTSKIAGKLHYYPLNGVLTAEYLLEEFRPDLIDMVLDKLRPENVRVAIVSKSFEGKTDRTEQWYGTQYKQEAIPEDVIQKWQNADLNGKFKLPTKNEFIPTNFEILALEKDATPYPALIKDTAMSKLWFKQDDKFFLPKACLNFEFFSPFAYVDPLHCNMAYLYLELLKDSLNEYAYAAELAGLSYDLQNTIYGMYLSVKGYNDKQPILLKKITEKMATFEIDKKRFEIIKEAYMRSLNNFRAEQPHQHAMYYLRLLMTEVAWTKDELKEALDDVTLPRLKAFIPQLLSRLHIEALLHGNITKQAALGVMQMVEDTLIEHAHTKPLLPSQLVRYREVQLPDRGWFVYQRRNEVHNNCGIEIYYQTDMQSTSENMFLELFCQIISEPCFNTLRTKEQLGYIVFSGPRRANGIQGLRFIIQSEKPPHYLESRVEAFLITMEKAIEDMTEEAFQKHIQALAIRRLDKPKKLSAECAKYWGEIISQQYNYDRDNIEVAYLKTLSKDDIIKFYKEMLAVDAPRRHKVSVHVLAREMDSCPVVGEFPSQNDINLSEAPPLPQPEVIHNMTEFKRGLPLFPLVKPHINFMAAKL
molecule,measurement,setting,value
Bacitracin,stabilization of sp6BY by known IDE-inhibitors,[1],prevented the degradation of p6
c1ccc(CN(CCN(Cc2ccccn2)Cc2ccccn2)Cc2ccccn2)nc1 [TPEN],stabilization of sp6 in the presence of rIDE,recombinant IDE (rIDE),stabilized sp6
CC(C)C[C@H](NC(=O)[C@@H](O)[C@H](N)Cc1ccccc1)C(=O)O [Bestatin],stabilization of sp6 by protease inhibitor (initial screen),[1],did not stabilize p6
PVAQVPQGLTPTAPPVDPAVDLLEKYMQQGKRQREQRERPYKEVTEDLLHLEQGETPYREPPTEDLLHLNSLFGKDQ,not cleaved,[2],no degradation observed (up to 60 min)
CC[C@H](C)[C@H](NC(=O)[C@@H]1CCCN1C(=O)[C@H](CCC(=O)O)NC(=O)[C@H](CCC(N)=O)NC(=O)[C@H](CCCCN)NC(=O)[C@H](CCC(N)=O)NC(=O)[C@H](CO)NC(=O)[C@@H]1CCCN1C(=O)[C@@H](NC(=O)[C@@H](NC(=O)[C@@H](NC(=O)[C@H](CCC(=O)O)NC(=O)[C@H](CCC(=O)O)NC(=O)CNC(=O)[C@H](Cc1ccccc1)NC(=O)[C@H](CCCNC(=N)N)NC(=O)[C@H](Cc1ccccc1)NC(=O)[C@H](CC(N)=O)NC(=O)[C@H](CCC(=O)O)NC(=O)[C@H](CCC(=O)O)NC(=O)[C@@H]1CCCN1C(=O)[C@@H]1CCCN1C(=O)[C@H](C)NC(=O)[C@@H](NC(=O)[C@@H]1CCCN1C(=O)[C@H](CCC(=O)O)NC(=O)[C@@H]1CCCN1C(=O)[C@H](CCCNC(=N)N)NC(=O)[C@H](CO)NC(=O)[C@H](CCC(N)=O)NC(=O)[C@@H](N)CC(C)C)[C@@H](C)O)[C@@H](C)O)[C@@H](C)O)[C@@H](C)O)C(=O)N[C@@H](CC(=O)O)C(=O)N[C@@H](CCCCN)C(=O)N[C@@H](CCC(=O)O)C(=O)N[C@@H](CC(C)C)C(=O)N[C@@H](Cc1ccc(O)cc1)C(=O)N1CCC[C@H]1C(=O)N[C@@H](CC(C)C)C(=O)N[C@@H](C)C(=O)N[C@@H](CO)C(=O)N[C@@H](CC(C)C)C(=O)N[C@@H](CCCNC(=N)N)C(=O)N[C@@H](CO)C(=O)N[C@@H](CC(C)C)C(=O)N[C@@H](Cc1ccccc1)C(=O)NCC(=O)N[C@@H](CO)C(=O)N[C@@H](CC(=O)O)C(=O)N1CCC[C@H]1C(=O)N[C@@H](CO)C(=O)N[C@@H](CO)C(=O)N[C@@H](CCC(N)=O)C(=O)O [S14N],degradation efficiency of HIV-1NL4-3 p6 mutants in S10 extract,[3],wt degradation efficiency
"CCN1C(=O)C=CC1=O [NEM, N-ethylmaleimide]",stabilization of sp6BY by known IDE-inhibitors,[1],prevented the degradation of p6
same,stabilization of sp6 in the presence of rIDE,recombinant IDE (rIDE),stabilized sp6
CC(C)C[C@H](NP(=O)(O)O[C@@H]1O[C@@H](C)[C@H](O)[C@@H](O)[C@H]1O)C(=O)N[C@@H](Cc1c[nH]c2ccccc12)C(=O)O [Phosphoramidon],stabilization of sp6 by protease inhibitor (initial screen),[1],failed to stabilize p6
amyloid-β [Aβ],kcat,purified mammalian IDE; purified mammalian IDE,0.875 s⁻¹
same,Km,purified mammalian IDE; rounded value,1.2 µM
CC[C@H](C)[C@H](NC(=O)[C@@H]1CCCN1C(=O)[C@H](CCC(=O)O)NC(=O)[C@H](CCC(N)=O)NC(=O)[C@H](CCCNC(=N)N)NC(=O)[C@H](CCC(N)=O)NC(=O)[C@H](CO)NC(=O)[C@@H]1CCCN1C(=O)[C@@H](NC(=O)[C@@H](NC(=O)[C@@H](NC(=O)[C@H](CCC(=O)O)NC(=O)[C@H](CCC(=O)O)NC(=O)CNC(=O)[C@H](Cc1ccccc1)NC(=O)[C@H](CCCNC(=N)N)NC(=O)[C@H](Cc1ccccc1)NC(=O)[C@H](CO)NC(=O)[C@H](CCC(=O)O)NC(=O)[C@H](CCC(=O)O)NC(=O)[C@@H]1CCCN1C(=O)[C@@H]1CCCN1C(=O)[C@H](C)NC(=O)[C@@H](NC(=O)[C@@H]1CCCN1C(=O)[C@H](CCC(=O)O)NC(=O)[C@@H]1CCCN1C(=O)[C@H](CCCNC(=N)N)NC(=O)[C@H](CO)NC(=O)[C@H](CCC(N)=O)NC(=O)[C@@H](N)CC(C)C)[C@@H](C)O)[C@@H](C)O)[C@@H](C)O)[C@@H](C)O)C(=O)N[C@@H](CC(=O)O)C(=O)N[C@@H](CCCNC(=N)N)C(=O)N[C@@H](CCC(=O)O)C(=O)N[C@@H](CC(C)C)C(=O)N[C@@H](Cc1ccc(O)cc1)C(=O)N1CCC[C@H]1C(=O)N[C@@H](CC(C)C)C(=O)N[C@@H](C)C(=O)N[C@@H](CO)C(=O)N[C@@H](CC(C)C)C(=O)N[C@@H](CCCNC(=N)N)C(=O)N[C@@H](CO)C(=O)N[C@@H](CC(C)C)C(=O)N[C@@H](Cc1ccccc1)C(=O)NCC(=O)N[C@@H](CO)C(=O)N[C@@H](CC(=O)O)C(=O)N1CCC[C@H]1C(=O)N[C@@H](CO)C(=O)N[C@@H](CO)C(=O)N[C@@H](CCC(N)=O)C(=O)O [K27/33R],degradation efficiency of HIV-1NL4-3 p6 mutants in S10 extract,[3],wt degradation efficiency
CC[C@H](C)[C@H](NC(=O)[C@@H]1CCCN1C(=O)[C@H](CCC(=O)O)NC(=O)[C@H](CCC(N)=O)NC(=O)[C@H](CCCCN)NC(=O)[C@H](CCC(N)=O)NC(=O)[C@H](CO)NC(=O)[C@@H]1CCCN1C(=O)[C@@H](NC(=O)[C@@H](NC(=O)[C@@H](NC(=O)[C@H](CCC(=O)O)NC(=O)[C@H](CCC(=O)O)NC(=O)CNC(=O)[C@H](Cc1ccccc1)NC(=O)[C@H](CCCNC(=N)N)NC(=O)[C@H](Cc1ccccc1)NC(=O)[C@H](CO)NC(=O)[C@H](CCC(=O)O)NC(=O)[C@H](CCC(=O)O)NC(=O)[C@@H]1CCCN1C(=O)[C@@H]1CCCN1C(=O)[C@H](C)NC(=O)[C@@H](NC(=O)[C@@H]1CCCN1C(=O)[C@H](CCC(=O)O)NC(=O)[C@@H]1CCCN1C(=O)[C@H](CCCNC(=N)N)NC(=O)[C@H](CO)NC(=O)[C@H](CCC(N)=O)NC(=O)[C@@H](N)CC(C)C)[C@@H](C)O)[C@@H](C)O)[C@@H](C)O)[C@@H](C)O)C(=O)N[C@@H](CC(=O)O)C(=O)N[C@@H](CCCCN)C(=O)N[C@@H](CCC(=O)O)C(=O)N[C@@H](CC(C)C)C(=O)N[C@@H](Cc1ccc(O)cc1)C(=O)N1CCC[C@H]1C(=O)N[C@@H](CC(C)C)C(=O)N[C@@H](C)C(=O)N[C@@H](Cc1ccccc1)C(=O)N[C@@H](CC(C)C)C(=O)N[C@@H](CCCNC(=N)N)C(=O)N[C@@H](CO)C(=O)N[C@@H](CC(C)C)C(=O)N[C@@H](Cc1ccccc1)C(=O)NCC(=O)N[C@@H](CO)C(=O)N[C@@H](CC(=O)O)C(=O)N1CCC[C@H]1C(=O)N[C@@H](CO)C(=O)N[C@@H](CO)C(=O)N[C@@H](CCC(N)=O)C(=O)O [S40F],degradation efficiency of HIV-1NL4-3 p6 mutants in S10 extract,[3],wt degradation efficiency
PMAQVHQGLMPTAPPEDPAVDLLKNYMQLGKQQREKQRESREKPYKEVTEDLLHLNSLFGGDQ,not cleaved,[2],no degradation observed (up to 60 min)
O=C(O)CN(CCN(CC(=O)O)CC(=O)O)CC(=O)O [EDTA],stabilization of sp6 by protease inhibitor (initial screen),[1],could stabilize sp6
PIQQKSQHNKSVVQETPQTQNLYPDLSEIKKEYNVKEKDQVEDLNLDSLWE,not cleaved,[2],no degradation observed (up to 60 min)
Nc1ncnc2c1ncn2[C@@H]1O[C@H](COP(=O)(O)OP(=O)(O)OP(=O)(O)O)[C@@H](O)[C@H]1O [ATP],stabilization of sp6BY by known IDE-inhibitors,[1],prevented the degradation of p6
